Assay results as given in patent US6063788A, “Bicyclic-fused pyridines” (Bayer Aktiengesellschaft, priority 1996, dated 2000).

How the values were obtained:
transgenic hCETP mice = test: In vivo activity in transgenic hCETP mice; details: 100 ppm in the feed; one week
Method: In Vivo Activity in Transgenic hCETP Mice
Transgenic mice from in-house breeding (Dinchuck, Hart, Gonzalez, Karmann, Schmidt, Wirak; BBA (1995), 1295, 301) were administered the substances to be tested in the feed. Before the start of the experiment, blood was taken retro-orbitally from the mice in order to determine cholesterol and triglycerides in the serum. The serum was obtained as described above for hamsters by incubation at 4° C. overnight and subsequent centrifugation at 6000×g. After one week, blood was again taken from the mice in order to determine lipoproteins and triglycerides. The change in the parameters measured is expressed as a percentage change compared with the starting value.

CETP = test: Ex vivo activity: CETP activity in serum of treated hamsters; set-up: species or system Syrian golden hamsters; details: hamster serum; for ED50 (ex vivo activity): up to 24 hours after administration
Method: Ex Vivo Activity of the Compounds According to the Invention
Syrian golden hamsters from in-house breeding are anaesthetized after fasting for 24 hours (0.8 mg/kg of atropine, 0.8 mg/kg of Ketavet® s.c., 30' later 50 mg/kg of Nembutal i.p.). The jugular vein is then exposed and cannulated. The test substance is dissolved in a suitable solvent (as a rule Adalat placebo solution: 60 g of glycerol, 100 ml of H2 O, PEG-400 to 1000 ml) and administered to the animals via a PE catheter inserted in the jugular vein. The control animals receive the same volume of solvent without test substance. The vein is then tied off and the wound is closed. The administration of the test substances can also be carried out p.o., by orally administering the substances dissolved in DMSO and suspended in 0.5% Tylose by means of a stomach tube. The control animals receive identical volumes of solvent without test substance.
After various times--up to 24 hours after administration--blood (about 250 μl) is taken from the animals by puncture of the retro-orbital venous plexus. Clotting is ended by incubation at 4° C. overnight, then centrifugation is carried out at 6000×g for 10 minutes. In the serum thus obtained, CETP activity is determined by the modified CETP test. As for the CETP test described above, the transfer of ^3 H-cholesterol ester from HD lipoproteins to biotinylated LD lipoproteins is measured.
The reaction is ended by addition of Streptavidin-SPA® beads (Amersham) and the transferred radioactivity is determined directly in the liquid scintillation counter.
The test mixture is carried out as described under "CETP test". For the testing of the serum, only 10 μl of CETP are replaced by 10 μl of the corresponding serum samples. As controls, corresponding incubations with sera of untreated animals are used.
The activity transferred in the control mixtures with control sera is rated as 100% transfer. The substance concentration at which this transfer is reduced to a half is indicated as the ED50 value.

[1] = biological target: T1, cholesterol ester transfer protein (CETP) (Homo sapiens, UniProt P11597); test: CETP inhibition testing (transfer of 3H-cholesterol ester from HDL to biotinylated LDL); type: biochemical; details: substance concentration at which transfer is reduced by half; 18 h at 37° C.
T1 construct: CETP is obtained from human plasma in partially purified form; from tissue; host or cells: human plasma (partially purified by centrifugation, phenyl-Sepharose, CM-Sepharose, Mono Q)
T1 sequence (P11597 18-493): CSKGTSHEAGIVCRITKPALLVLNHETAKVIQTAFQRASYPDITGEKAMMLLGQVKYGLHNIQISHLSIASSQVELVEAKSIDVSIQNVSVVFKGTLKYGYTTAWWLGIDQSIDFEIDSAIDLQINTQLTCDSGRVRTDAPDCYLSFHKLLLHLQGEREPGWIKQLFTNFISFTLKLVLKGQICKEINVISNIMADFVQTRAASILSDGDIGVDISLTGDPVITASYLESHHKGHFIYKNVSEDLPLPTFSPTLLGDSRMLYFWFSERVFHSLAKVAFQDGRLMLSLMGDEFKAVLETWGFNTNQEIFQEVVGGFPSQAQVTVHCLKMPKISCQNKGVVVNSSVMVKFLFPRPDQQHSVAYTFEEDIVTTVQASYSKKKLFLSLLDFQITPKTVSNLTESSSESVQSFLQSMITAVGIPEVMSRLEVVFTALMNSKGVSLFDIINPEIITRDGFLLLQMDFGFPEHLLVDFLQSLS
Method: CETP is obtained from human plasma in partially purified form by differential centrifugation and column chromatography and used for the test. To this end, human plasma is adjusted to a density of 1.21 g per ml using NaBr and centrifuged at 4° C. for 18 h at 50,000 rpm. The bottom fraction (d>1.21 g/ml) is applied to a Sephadex®phenyl-sepharose 4B (Pharmacia) column, washed with 0.15 M NaCl/0.001 M trisHCl pH 7.4 and then eluted with distilled water. The CETP-active fractions are pooled, dialysed against 50 mM Na acetate pH 4.5 and applied to a CM-Sepharose® (Pharmacia) column. The column is then eluted using a linear gradient (0-1 M NaCl). The pooled CETP fractions are dialysed against 10 mM tris HCl pH 7.4 and then further purified by chromatography on a Mono Q® column (Pharmacia).
Obtainment of radiolabelled HDL
50 ml of fresh human EDTA plasma are adjusted to a density of 1.12 using NaBr and centrifuged at 50,000 rpm for 18 h at 4° C. in a Ty 65 rotor. The upper phase is used to obtain cold LDL. The lower phase is dialysed against 3×4 l of PDB buffer (10 mM tris/HCl pH 7.4, […], 1 mM EDTA, 0.02% NaN3). 20 μl of ^3 H-cholesterol (Dupont NET-725; 1 μC/μl dissolved in ethanol!) are then added per 10 ml of retentate volume and the mixture is incubated under N2 at 37° C. for 72 h. […]
To test the CETP activity, the transfer of ^3 H-cholesterol ester from human HD lipoproteins to biotinylated LD lipoproteins is measured.
The reaction is ended by addition of streptavidin-SPA®beads (Amersham) and the transferred radioactivity is determined directly in a liquid scintillation counter.
In the test mixture, 10 μl of HDL-^3 H-cholesterol ester (~50,000 cpm) are incubated at 37° C. for 18 h with 10 μl of biotin-LDL (Amersham) in 50 mM Hepes/0.15 M NaCl/0.1% bovine serum albumin/0.05% NaN3 pH 7.4 with 10 μl of CETP (1 mg/ml) and 3 μl of solution of the substance to be tested (dissolved in 10% DMSO/1% RSA). 200 μl of the SPA-streptavidin bead solution (TRKQ 7005) are then added, the mixture is incubated further for 1 h with shaking and then measured in the scintillation counter. […]

HDL cholesterol = test: In vivo activity: oral action on lipoproteins (HDL rise) in hamsters; set-up: species or system Syrian golden hamsters; details: Dose 2 × 10 mg/kg, hamster, up to 24 hours
Method: In Vivo Activity of the Compounds According to the Invention
In experiments to determine the oral action on lipoproteins and triglycerides, test substance dissolved in DMSO and 0.5% Tylose suspended by means of a stomach tube are administered orally to Syrian golden hamsters from in-house breeding. To determine the CETP activity, blood (about 250 μl) is taken by retro-orbital puncture before the start of the experiment. The test substances are then administered orally by means of a stomach tube. The control animals receive identical volumes of solvents without test substance. The feed is then withdrawn from the animals and blood is taken at various times--up to 24 hours after substance administration--by puncture of the retro-orbital venous plexus.
Clotting is ended by incubation at 4° C. overnight, then centrifugation at 6000×g is carried out for 10 minutes. In the serum thus obtained, the content of cholesterol and triglycerides is determined with the aid of modified commercially available enzyme tests (cholesterol enzymatic 14366 Merck, triglycerides 14364 Merck). Serum is suitably diluted using physiological saline solution.
100 μl of serum dilution are mixed with 100 μl of […] in 96-hole plates and incubated at room temperature for 10 minutes. The optical density is then determined at a wavelength of 492 nm using an automatic plate-reading apparatus. The triglyceride or cholesterol concentration contained in the samples is determined with the aid of a standard curve measured in parallel.
The determination of the content of HDL cholesterol is carried out according to the manufacturer's instructions after precipitation of the ApoB-containing lipoproteins by means of a reagent mixture (Sigma 352-4 HDL cholesterol reagent).

| Structure (SMILES) | % Inhibition at 10 mg/kg (CETP) [%] | ED50 (ex vivo activity) (CETP) [mg/kg] | IC50 [1] [µM] | % HDL rise (HDL cholesterol) [%] | also measured |
| --- | --- | --- | --- | --- | --- |
| CC(C)c1nc2c(c(-c3ccc(F)cc3)c1C(F)c1ccc(C(F)(F)F)cc1)C(O)c1ccccc1-2 (stereo not drawn) [Example 14] | 64.0 | < 10 | 0.06 |  | HDL (percentage change compared with the starting value) (transgenic hCETP mice): 22.0%; LDL (percentage change compared with the starting value) (transgenic hCETP mice): -10.5%; Triglyceride (percentage change compared with the starting value) (transgenic hCETP mice): -9.7% |
| OC1c2ccccc2-c2nc(C3CCCC3)c(C(F)c3ccc(C(F)(F)F)cc3)c(-c3ccc(F)cc3)c21 (stereo not drawn) [Example 18] |  |  |  | 3.3 |  |
| O=C(c1ccc(C(F)(F)F)cc1)c1c(C2CCCC2)nc2c(c1-c1ccc(F)cc1)C(O)c1ccccc1-2 (stereo not drawn) [Example 19] | 46.0 | > 10 |  | 17.1 |  |
| OC1c2ccccc2-c2nc(C3CCCC3)c(Cc3ccc(C(F)(F)F)cc3)c(-c3ccc(F)cc3)c21 (stereo not drawn) [Example 20] |  |  |  | 11.14 |  |
| OC(c1ccc(Cl)c(C(F)(F)F)c1)c1c(C2CCCC2)nc2c(c1-c1ccc(F)cc1)C(O)c1ccccc1-2 (stereo not drawn) [Example 22] |  |  | 0.24 |  |  |
| CC(C)c1nc2c(c(-c3ccc(F)cc3)c1C(F)c1ccc(C(F)(F)F)cc1)C(O)c1cc(Cl)c(Cl)cc1-2 (stereo not drawn) [Example 27] |  |  | 0.3 |  |  |
| O=C1c2cccc(F)c2-c2nc(C3CCCC3)c(C(F)c3ccc(C(F)(F)F)cc3)c(-c3ccc(F)cc3)c21 (stereo not drawn) [Example 29] | 17.2 | > 10 |  |  |  |
